Patent US9232785B2, “Method for reducing sunburn damage in plants” (BASF SE, priority 2009, dated 2016)

Assays:
[1] = test system: sunburn injury on winter barley; assay: Preventive action on winter barley against sunburn injury, field trial (Example 3); assay type: in vivo; details: Germany, applied at BBCH 53, evaluated 22 days after application, 0 = as untreated control, 100 = no sunburn symptoms, UV filter 2 L/ha (500 g ai/ha), Actives A & B 0.8 & 0.8 L/ha (240 & 297 g ai/ha)
Experimental: As active substance a mixture of active substances was used called “Actives A & B”, which was prepared by mixing Active A and Active B. Active A was a fungicidal suspension concentrate comprising 6 wt % epoxiconazol, 20.8 wt % boscalid, 11.2-12.6 wt % fatty alcohol alkoxylate, C8-alkyl glucoside, and phenolsulfonic acid-formaldehyde-polycondensate sodium salt (commercially available pesticide formulation from BASF SE as Champion®). Active B a fungicidal suspoemulsion comprising 20.6 wt % fenpropimorph, 11 wt % pyraclostrobin, 4.1 wt % epoxiconazol, 20.5 wt % solvent naphtha, 11 wt % fatty alcohol ethoxylate and 4.8 wt % phenolsulfonic acid-formaldehyde-polycondensate sodium salt (commercially available pesticide formulation from BASF SE as Diamant®). UV Filter A and UV filter B were prepared as described in examples 1 and 2.
The biological trial was conducted under field conditions in Germany. […] The level of sunburn injury was evaluated 22 days after application (% estimation of destroyed leaf area).
The sunburn injury assessments were converted into efficacies. […] The expected efficacies of active compound mixtures were determined using Colby's formula [R. S. Colby, “Calculating synergistic and antagonistic responses of herbicide combinations”, Weeds 15, 20-22 (1967)] and compared with the observed efficacies.

[2] = test system: sunburn injury on barley cultivar Finita; assay: Preventive action on winter barley against sunburn injury, field trial, two timings (Example 5); assay type: in vivo; details: applied at BBCH 53, Actives A & B 0.8 l/ha, UV Filter 2.0 l/ha, Surround 10 kg/ha, % destroyed leaf area
Experimental: The biological trial was conducted under field conditions in Germany. The barley cultivar […] was planted and grown under standard conditions with adequate supply of water and nutrients. At BBCH 53 0.8 l/ha of Actives A & B and 2.0 l/ha UV Filter A or B were applied. For comparison, the Surround® (commercially available from Engelhard Corp., wettable powder comprising 95 wt % kaolin) was applied at a rate of 10 kg/ha. The level of sunburn injury was evaluated 15 and 22 days after application (% estimation of destroyed leaf area).

COCCOCCOCCOCCOCCOCCOCCOC(=O)CCc1cc(-n2nc3ccccc3n2)c(O)c(C(C)(C)C)c1 [UV Filter B, 3-(3-Benzotriazol-2-yl-5-tert-butyl-4-hydroxyphenyl)-propiosäure-[Pluriol A350E]-ester]
Efficacy [1]: 3 | % sunburn injury 15 days after application [2]: 36% | % sunburn injury 22 days after application [2]: 97%

COCCOCCOCCOCCOCCOCCOCCOC(=O)C(C#N)=C(c1ccccc1)c1ccccc1 [UV Filter A, 2-Cyano-3,3-diphenyl-acrylsäure-[Pluriol A350E]-ester]
Efficacy [1]: 4 | % sunburn injury 15 days after application [2]: 38% | % sunburn injury 22 days after application [2]: 96%
